In paper PMC3905170, “Synthesis and structure evaluation of new complex butylarylpiperazin-1-yl derivatives” (Medicinal Chemistry Research, 2013):
Where two headings read alike, the source gives them in different places.

How the values were obtained:
HIV-1IIIB = test: Anti-HIV-1 assay: inhibition of virus-induced cytopathogenicity in MT-4 cells (MTT method); assay type: cell-based, human immunodeficiency virus type-1; conditions: MT-4 cells infected with HIV-1IIIB, m.o.i. 0.01, 4-day incubation, read-out: EC50: compound concentration required to achieve 50 % protection of MT-4 cells from the HIV-1-induced cytopathogenicity
Text: Cell line and viruses were purchased from the American Type Culture Collection (ATCC). The absence of mycoplasma contamination was checked periodically by the Hoechst staining method. Cell line supporting the multiplication of human immunodeficiency virus type-1 (HIV-1) was the CD4+ human T-cells containing an integrated HTLV-1 genome (MT-4).
Compound’s activity against HIV-1 was based on inhibition of virus-induced cytopathogenicity in MT-4 cell acutely infected with a multiplicity of infection (m.o.i.) of 0.01. In brief, 50 μl of RPMI containing 1 × 10^4 MT-4 cells were added to each well of flat-bottom microtitre trays, containing 50 μl of RPMI with or without serial dilutions of test compounds. Then, 20 μl of a HIV-1 suspension containing 100 CCID50 was added. After a 4-day incubation at 37 °C, cell viability was determined by the MTT method (Pauwels et al., [1988]).

MT-4 cells = test: Cytotoxicity assay in MT-4 cells (MTT method); assay type: cell-based, human
Experimental: (§1) Cell line and viruses were purchased from the American Type Culture Collection (ATCC). The absence of mycoplasma contamination was checked periodically by the Hoechst staining method. Cell line supporting the multiplication of human immunodeficiency virus type-1 (HIV-1) was the CD4+ human T-cells containing an integrated HTLV-1 genome (MT-4). Cytotoxicity assays were run in parallel with antiviral assays. Exponentially growing MT-4 cells were seeded at an initial density of 1 × 10^5 cells/ml in 96-well plates in RPMI-1640 medium, supplemented with 10 % fetal bovine serum (FBS), 100 units/ml penicillin G, and 100 μg/ml streptomycin. Cell cultures were then incubated at 37 °C in a humidified 5 % CO2 atmosphere in the absence or presence of serial dilutions of test compounds. Cell viability was determined after 96 h at 37 °C by the 3-(4,5-dimethylthiazol-2-yl)-2,5-diphenyl-tetrazolium bromide (MTT) method (Pauwels et al., [1988]).

[1] = Cytotoxicity assay in MT-4 cells (MTT method); assay type: cell-based, human; conditions: human; mock-infected MT-4 cells, 96 h, MTT method; read-out: CC50: compound concentration required to reduce the viability of mock-infected MT-4 cells by 50 %
Experimental: as §1

5-HT1A receptor = target: T1, 5-HT1A receptor (Rattus norvegicus, UniProt P19327); test: In vitro ligand binding assay with native 5-HT1A receptor
T1 construct: Ligand studies with native 5-HT1A receptor; from tissue
T1 sequence (P19327 1-422): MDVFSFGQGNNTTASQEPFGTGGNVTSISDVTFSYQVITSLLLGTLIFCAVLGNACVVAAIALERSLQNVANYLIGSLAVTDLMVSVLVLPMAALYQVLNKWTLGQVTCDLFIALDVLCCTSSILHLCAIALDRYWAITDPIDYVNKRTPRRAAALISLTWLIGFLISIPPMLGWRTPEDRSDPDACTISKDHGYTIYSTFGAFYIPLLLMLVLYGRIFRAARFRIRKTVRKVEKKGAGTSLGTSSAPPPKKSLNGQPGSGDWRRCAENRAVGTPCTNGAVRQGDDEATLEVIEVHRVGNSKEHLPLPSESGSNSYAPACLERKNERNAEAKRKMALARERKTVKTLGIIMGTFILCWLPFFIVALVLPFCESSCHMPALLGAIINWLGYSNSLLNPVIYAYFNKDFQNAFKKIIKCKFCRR
Experimental: Ligand studies with native 5-HT1A receptor were conducted according to the methods previously described (Lewgowd et al., [2011]).

[2] = Human immunodeficiency virus 1, MT4, 96 h

Q: With “4,10-Diphenyl-2-{4-[4-(pyridin-2-yl)piperazin-1-yl]butyl}-1H,2H,3H,5H-indeno[1,2-f]isoindole-1,3,5-trione [Compound 13]” as the compound, how does the EC50 (HIV-1IIIB) read?
A: Its EC50 is > 100 µM.

Q: And the CC50 (MT-4 cells)?
A: The CC50 was > 100 µM.

Q: What does the source list for O=C1C2C(C(=O)N1CCCCN1CCN(c3ccc(Cl)cc3)CC1)C1(c3ccccc3)C(=O)C2(c2ccccc2)c2c1c1ccccc1c1ccccc21 (stereo not drawn) [Compound 6, 19-(4-(4-(4-Chlorophenyl)piperazin-1-yl)butyl)-1,16-diphenyl-19-azahexacyclo-[14.5.1.0^2,15.0^3,8.0^9,14.0^17,21]docosa-2,3,5,7,8,9,11,13,14-nonaene-18,20,22-trione]?
A: EC50 (HIV-1IIIB; [2]): > 100 µM; CC50 at 96 h [1]: > 100 µM; melting point: 220 to 221 °C

Q: For O=C1Nc2ccc(Cl)cc2[C@@](C#CC2CC2)(C(F)(F)F)O1 [Efavirenz, reference compound], which EC50 (HIV-1IIIB; [2]) is on record?
A: Its EC50 is 0.002 µM.

Q: And the CC50 at 96 h [1]?
A: The CC50 at 96 h was 45 µM.

Q: Which melting point does the source give for O=c1cccc2cc3c(-c4ccccc4)c4c(=O)n(CCCCBr)c(=O)c4c(-c4ccccc4)c3c1-2 here?
A: Its melting point is 241 to 242 °C.

Q: With O=c1c2ccccc2c2c(-c3ccccc3)c3c(=O)n(CCCCN4CCN(c5ccc(Cl)cc5)CC4)c(=O)c3c(-c3ccccc3)c12 [Compound 17, 2-{4-[4-(4-Chlorophenyl)piperazin-1-yl]butyl}-4,10-diphenyl-1H,2H,3H,5H-indeno[1,2-f]isoindole-1,3,5-trione] as the compound, how does the EC50 (HIV-1IIIB) read?
A: Its EC50 is > 100 µM.

Q: And the CC50 (MT-4 cells)?
A: Its CC50 is > 100 µM.

Q: For “2-{4-[4-(4-Fluorophenyl)piperazin-1-yl]butyl}-4,10-diphenyl-1H,2H,3H,5H-indeno[1,2-f]isoindole-1,3,5-trione [Compound 16]”, which EC50 (HIV-1IIIB) is on record?
A: The EC50 was > 100 µM.

Q: What about the CC50 (MT-4 cells) of the same compound?
A: The CC50 was > 100 µM.

Q: With COc1ccccc1N1CCN(CCCCN2C(=O)C3C(C2=O)C2(c4ccccc4)C(=O)C3(c3ccccc3)c3c2c2ccccc2c2ccccc32)CC1 (stereo not drawn) [Compound 4, 19-(4-(4-(2-(Methyloxy)phenyl)piperazin-1-yl)butyl)-1,16-diphenyl-19-azahexa-cyclo[14.5.1.0^2,15.0^3,8.0^9,14.0^17,21]docosa-2,3,5,7,8,9,11,13,14-nonaene-18,20,22-trione] as the compound, how does the melting point read?
A: Its melting point is 197 to 200 °C.

Q: What about the “activity to the 5-HT1A receptor” value (5-HT1A receptor) of the same compound?
A: The value was “moderate activity”.

Q: Which EC50 (HIV-1IIIB; [2]) does the source give for O=C1C2C(C(=O)N1CCCCN1CCN(c3ccccc3F)CC1)C1(c3ccccc3)C(=O)C2(c2ccccc2)c2c1c1ccccc1c1ccccc21 (stereo not drawn) [Compound 7, 19-(4-(4-(2-Fluorophenyl)piperazin-1-yl)butyl)-1,16-diphenyl-19-azahexacyclo-[14.5.1.0^2,15.0^3,8.0^9,14.0^17,21]docosa-2,3,5,7,8,9,11,13,14-nonaene-18,20,22-trione] here?
A: Its EC50 is > 100 µM.

Q: And the CC50 at 96 h [1]?
A: The CC50 at 96 h was > 100 µM.

Q: And the melting point?
A: Its melting point is 205 to 207 °C.

Q: For COc1ccccc1N1CCN(CCCCn2c(=O)c3c(-c4ccccc4)c4c(=O)c5ccccc5c4c(-c4ccccc4)c3c2=O)CC1 [Compound 19, 2-{4-[4-(2-metoxyphenyl)piperazin-1-yl]butyl}-4,10-diphenyl-1H,2H,3H,5H-indeno[1,2-f]isoindole-1,3,5-trione], which EC50 (HIV-1IIIB; [2]) is on record?
A: The EC50 was > 100 µM.

Q: And the CC50 at 96 h [1]?
A: The CC50 at 96 h was > 100 µM.

Q: What about the melting point of the same compound?
A: Its melting point is 245 to 246 °C.

Q: For CC(=O)c1ccc(N2CCN(CCCCN3C(=O)C4C(C3=O)C3(c5ccccc5)C(=O)C4(c4ccccc4)c4c3c3ccccc3c3ccccc43)CC2)cc1 (stereo not drawn) [Compound 8, 19-(4-(4-(4-Acetylphenyl)piperazin-1-yl)butyl)-1,16-diphenyl-19-azahexacyclo-[14.5.1.0^2,15.0^3,8.0^9,14.0^17,21]docosa-2,3,5,7,8,9,11,13,14-nonaene-18,20,22-trione], which EC50 (HIV-1IIIB; [2]) is on record?
A: Its EC50 is > 100 µM.

Q: What about the CC50 at 96 h [1] of the same compound?
A: The CC50 at 96 h was > 100 µM.

Q: And the melting point?
A: Its melting point is 202 to 204 °C.

Q: For O=c1[nH]c(=O)c2c(-c3ccccc3)c3c(c(-c4ccccc4)c12)c(=O)c1ccccc13 [Compound 10, 4,10-diphenyl-1H,2H,3H,5H-indeno[1,2-f]isoindole-1,3,5-trione], which EC50 (HIV-1IIIB) is on record?
A: Its EC50 is > 9 µM.

Q: What about the CC50 (MT-4 cells) of the same compound?
A: Its CC50 is 9 µM.

Q: With O=C1C2C(C(=O)N1CCCCN1CCN(c3ccccn3)CC1)C1(c3ccccc3)C(=O)C2(c2ccccc2)c2c1c1ccccc1c1ccccc21 (stereo not drawn) [Compound 3, 1,16-Diphenyl-19-(4-(4-pyridin-2-ylpiperazin-1-yl)butyl)-19-azahexacyclo-[14.5.1.0^2,15.0^3,8.0^9,14.0^17,21]docosa-2,3,5,7,8,9,11,13,14-nonaene-18,20,22-trione] as the compound, how does the EC50 (HIV-1IIIB; [2]) read?
A: The EC50 was > 90 µM.

Q: What about the CC50 at 96 h [1] of the same compound?
A: Its CC50 at 96 h is 90 µM.

Q: And the melting point?
A: Its melting point is 200 to 203 °C.

Q: Which results are given for O=c1c2ccccc2c2c(-c3ccccc3)c3c(=O)n(CCCCN4CCN(c5ccccc5Cl)CC4)c(=O)c3c(-c3ccccc3)c12 [Compound 18, 2-{4-[4-(2-Chlorophenyl)piperazin-1-yl]butyl}-4,10-diphenyl-1H,2H,3H,5H-indeno[1,2-f]isoindole-1,3,5-trione]?
A: EC50 (HIV-1IIIB): > 100 µM; CC50 (MT-4 cells): > 100 µM

Q: For “4,10-Diphenyl-2-[4-(4-{2-[2-(trifluoromethyl)phenyl]ethyl}piperazin-1-yl)butyl]-1H,2H,3H,5H-indeno[1,2-f]isoindole-1,3,5-trione [Compound 14]”, which EC50 (HIV-1IIIB) is on record?
A: The EC50 was > 9 µM.

Q: And the CC50 (MT-4 cells)?
A: The CC50 was 9 µM.

Q: Which EC50 (HIV-1IIIB) does the source give for “2-{4-[4-(2-Fluorophenyl)piperazin-1-yl]butyl}-4,10-diphenyl-1H,2H,3H,5H-indeno[1,2-f]isoindole-1,3,5-trione [Compound 15]” here?
A: Its EC50 is > 100 µM.

Q: What about the CC50 (MT-4 cells) of the same compound?
A: The CC50 was > 100 µM.

Q: With “4,10-Diphenyl-2-[4-(4-phenylpiperazin-1-yl)butyl]-1H,2H,3H,5H-indeno[1,2-f]isoindole-1,3,5-trione [Compound 12]” as the compound, how does the EC50 (HIV-1IIIB) read?
A: The EC50 was > 100 µM.

Q: What about the CC50 (MT-4 cells) of the same compound?
A: Its CC50 is > 100 µM.
